Experimental data as given in article PMC10700596 (Nature Communications, 2023).
Where “and” joins values, the source holds several entries; their conditions need not be identical. Equal entries are not always repeated. Where two headings read alike, the source gives them in different places.

Columns and labels:
ABL1-nonphosphorylated = ABL1-nonphosphorylated (Homo sapiens, UniProt P00519); experiment: biochemical; assay type: binding; conditions: 10000 nM; read-out: Percent Control
EP1R = EP1R (Homo sapiens, UniProt P34995); experiment: Radioligand (3H-PGE2) displacement assay at EP1R; assay type: binding
CSNK1G2 = CSNK1G2 (Homo sapiens, UniProt P78368); experiment: biochemical; assay type: binding; conditions: 10000 nM; read-out: Percent Control
SNARK = SNARK (Homo sapiens, UniProt Q9H093); experiment: biochemical; assay type: binding; conditions: 10000 nM; read-out: Percent Control
SNARK, sequence (Q9H093 whole entry): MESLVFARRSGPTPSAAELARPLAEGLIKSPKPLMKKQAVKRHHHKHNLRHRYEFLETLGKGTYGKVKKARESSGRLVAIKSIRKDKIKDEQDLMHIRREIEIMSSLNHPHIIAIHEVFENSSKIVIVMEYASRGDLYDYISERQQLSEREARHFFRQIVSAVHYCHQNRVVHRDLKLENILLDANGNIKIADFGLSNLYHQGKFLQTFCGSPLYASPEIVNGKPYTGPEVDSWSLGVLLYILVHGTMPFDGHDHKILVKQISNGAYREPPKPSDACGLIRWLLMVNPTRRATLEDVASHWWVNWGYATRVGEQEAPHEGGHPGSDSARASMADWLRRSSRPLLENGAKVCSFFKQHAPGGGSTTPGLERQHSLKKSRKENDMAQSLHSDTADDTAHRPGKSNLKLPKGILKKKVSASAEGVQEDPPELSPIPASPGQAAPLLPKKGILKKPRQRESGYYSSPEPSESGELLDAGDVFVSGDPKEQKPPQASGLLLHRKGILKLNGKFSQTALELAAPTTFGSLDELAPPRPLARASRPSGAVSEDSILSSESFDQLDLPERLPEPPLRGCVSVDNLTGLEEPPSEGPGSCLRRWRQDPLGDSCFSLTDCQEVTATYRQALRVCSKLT

EPHA2 = EPHA2 (Homo sapiens, UniProt P29317); experiment: biochemical; assay type: binding; conditions: 10000 nM; read-out: Percent Control
GPR174 = GPR174 (Homo sapiens, UniProt Q9BXC1); assay type: cell-based
Method: (§1) EP4R. e) EP4R functional cyclic AMP production assay. Dose-response curves were obtained for 74 (KB […]
(§2) production assays for the prostaglandin D2 (PGD2) receptor or the Thromboxane A2 (TP) receptor, respectively. AZD1981 and Ramatroban were used as control PGD2 and TP receptor antagonists, respectively. U46619 served as a TP receptor agonist. H) GPCRome off-target screening of 74 at 10 µM. i) Potential off-targets that met the activity threshold (3-fold of increase of basal) in the GPCRome screen (GPR174, GPR160, or NMUR2) were investigated with full dose-response curves in PRESTO-Tango […]
(§3) Data in a)-d), f)-g), i) represents mean ± SEM of three independent experiments. Data in e) represents two technical replicates. Data in h) represents mean ± SEM of four technical replicates. Source data are provided as a Source Data file.
(§4) (1 picture or pasted object on this page, not shown here)

GPR160 = GPR160 (Homo sapiens, UniProt Q9UJ42); assay type: cell-based
Method: as §1, §2, §3, §4

NMUR2 = NMUR2 (Homo sapiens, UniProt Q9GZQ4); assay type: cell-based
Method: as §1, §2, §3, §4

JNK2 = JNK2 (Homo sapiens, UniProt P45984); experiment: biochemical; assay type: binding; conditions: 10000 nM; read-out: Percent Control
PIK3C2B = PIK3C2B (Homo sapiens, UniProt O00750); experiment: biochemical; assay type: binding; conditions: 10000 nM; read-out: Percent Control
Description: (§5) Source data are provided as a Source Data file.

MEK1 = MEK1 (Homo sapiens, UniProt Q02750); experiment: biochemical; assay type: binding; conditions: 10000 nM; read-out: Percent Control
MEK1, sequence (Q02750 whole entry): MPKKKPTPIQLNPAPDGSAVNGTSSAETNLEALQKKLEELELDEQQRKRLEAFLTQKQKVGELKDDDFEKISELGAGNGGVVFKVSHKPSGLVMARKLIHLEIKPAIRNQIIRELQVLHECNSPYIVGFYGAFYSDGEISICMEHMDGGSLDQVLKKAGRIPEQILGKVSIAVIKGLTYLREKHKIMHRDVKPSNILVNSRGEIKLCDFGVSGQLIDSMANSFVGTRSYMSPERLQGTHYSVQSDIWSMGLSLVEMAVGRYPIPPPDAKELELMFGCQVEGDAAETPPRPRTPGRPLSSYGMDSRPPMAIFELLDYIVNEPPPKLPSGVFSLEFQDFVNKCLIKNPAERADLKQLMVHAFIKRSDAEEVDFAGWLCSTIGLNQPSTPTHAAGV
Description: as §5

PLK1 = PLK1 (Homo sapiens, UniProt P53350); experiment: biochemical; assay type: binding; conditions: 10000 nM; read-out: Percent Control
Description: as §5

PDGFRA = PDGFRA (Homo sapiens, UniProt P16234); experiment: biochemical; assay type: binding; conditions: 10000 nM; read-out: Percent Control
Description: as §5

PCTK1 = PCTK1 (Homo sapiens, UniProt Q00536); experiment: biochemical; assay type: binding; conditions: 10000 nM; read-out: Percent Control
Description: as §5

MAP3K4 = MAP3K4 (Homo sapiens, UniProt Q9Y6R4); experiment: biochemical; assay type: binding; conditions: 10000 nM; read-out: Percent Control
MAP3K4, sequence (Q9Y6R4 whole entry): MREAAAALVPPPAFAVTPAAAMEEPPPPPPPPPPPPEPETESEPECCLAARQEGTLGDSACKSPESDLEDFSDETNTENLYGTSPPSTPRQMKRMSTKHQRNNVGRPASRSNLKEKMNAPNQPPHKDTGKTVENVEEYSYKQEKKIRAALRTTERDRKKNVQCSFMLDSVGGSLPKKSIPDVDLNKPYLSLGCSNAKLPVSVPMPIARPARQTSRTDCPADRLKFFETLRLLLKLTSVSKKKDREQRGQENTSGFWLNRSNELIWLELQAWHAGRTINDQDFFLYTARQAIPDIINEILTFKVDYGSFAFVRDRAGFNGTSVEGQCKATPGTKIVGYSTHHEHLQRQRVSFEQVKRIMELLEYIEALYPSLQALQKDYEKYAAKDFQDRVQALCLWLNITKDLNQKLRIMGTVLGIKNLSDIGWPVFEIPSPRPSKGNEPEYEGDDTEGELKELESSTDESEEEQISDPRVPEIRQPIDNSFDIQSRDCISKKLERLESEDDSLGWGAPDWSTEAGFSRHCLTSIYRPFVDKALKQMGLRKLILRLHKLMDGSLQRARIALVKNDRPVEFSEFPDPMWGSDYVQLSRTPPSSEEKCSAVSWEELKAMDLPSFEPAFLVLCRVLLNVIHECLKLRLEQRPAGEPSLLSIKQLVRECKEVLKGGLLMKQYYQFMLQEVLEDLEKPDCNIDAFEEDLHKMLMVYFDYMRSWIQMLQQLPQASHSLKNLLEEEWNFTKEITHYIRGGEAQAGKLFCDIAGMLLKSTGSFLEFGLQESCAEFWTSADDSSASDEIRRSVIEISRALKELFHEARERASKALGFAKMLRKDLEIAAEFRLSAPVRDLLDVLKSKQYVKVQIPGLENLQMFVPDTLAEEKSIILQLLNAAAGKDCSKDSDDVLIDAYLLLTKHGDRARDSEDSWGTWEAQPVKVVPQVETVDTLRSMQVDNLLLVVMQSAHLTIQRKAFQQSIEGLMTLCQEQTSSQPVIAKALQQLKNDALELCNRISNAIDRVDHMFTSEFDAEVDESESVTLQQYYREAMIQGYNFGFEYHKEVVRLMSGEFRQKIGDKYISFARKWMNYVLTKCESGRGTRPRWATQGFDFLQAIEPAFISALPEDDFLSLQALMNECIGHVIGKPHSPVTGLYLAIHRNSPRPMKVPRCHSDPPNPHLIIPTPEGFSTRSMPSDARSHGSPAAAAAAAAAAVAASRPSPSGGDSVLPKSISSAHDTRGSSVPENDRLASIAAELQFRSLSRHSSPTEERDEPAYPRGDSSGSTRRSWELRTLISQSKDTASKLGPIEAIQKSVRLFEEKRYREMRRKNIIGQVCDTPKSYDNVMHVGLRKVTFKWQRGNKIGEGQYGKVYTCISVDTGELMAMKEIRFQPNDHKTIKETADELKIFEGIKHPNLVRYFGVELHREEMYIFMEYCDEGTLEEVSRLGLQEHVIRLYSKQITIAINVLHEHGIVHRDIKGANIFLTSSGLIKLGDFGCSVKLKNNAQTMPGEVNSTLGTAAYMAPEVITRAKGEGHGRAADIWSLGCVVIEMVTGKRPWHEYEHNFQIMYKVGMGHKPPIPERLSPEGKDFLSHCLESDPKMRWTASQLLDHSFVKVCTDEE
Description: as §5

RET = RET (Homo sapiens, UniProt P07949); experiment: biochemical; assay type: binding; conditions: 10000 nM; read-out: Percent Control
Description: as §5

PLK3 = PLK3 (Homo sapiens, UniProt Q9H4B4); experiment: biochemical; assay type: binding; conditions: 10000 nM; read-out: Percent Control
Description: as §5

PAK4 = PAK4 (Homo sapiens, UniProt O96013); experiment: biochemical; assay type: binding; conditions: 10000 nM; read-out: Percent Control
Description: as §5

MKNK2 = MKNK2 (Homo sapiens, UniProt Q9HBH9); experiment: biochemical; assay type: binding; conditions: 10000 nM; read-out: Percent Control
Description: as §5

PIM2 = PIM2 (Homo sapiens, UniProt Q9P1W9); experiment: biochemical; assay type: binding; conditions: 10000 nM; read-out: Percent Control
Description: as §5

PAK1 = PAK1 (Homo sapiens, UniProt Q13153); experiment: biochemical; assay type: binding; conditions: 10000 nM; read-out: Percent Control
Description: as §5

MARK3 = MARK3 (Homo sapiens, UniProt P27448); experiment: biochemical; assay type: binding; conditions: 10000 nM; read-out: Percent Control
Description: as §5

VEGFR2 = VEGFR2 (Homo sapiens, UniProt P35968); experiment: biochemical; assay type: binding; conditions: 10000 nM; read-out: Percent Control
Description: as §5

PAK2 = PAK2 (Homo sapiens, UniProt Q13177); experiment: biochemical; assay type: binding; conditions: 10000 nM; read-out: Percent Control
Description: as §5

RIOK2 = RIOK2 (Homo sapiens, UniProt Q9BVS4); experiment: biochemical; assay type: binding; conditions: 10000 nM; read-out: Percent Control
Description: as §5

RAF1 = RAF1 (Homo sapiens, UniProt P04049); experiment: biochemical; assay type: binding; conditions: 10000 nM; read-out: Percent Control
RAF1, sequence (P04049 whole entry): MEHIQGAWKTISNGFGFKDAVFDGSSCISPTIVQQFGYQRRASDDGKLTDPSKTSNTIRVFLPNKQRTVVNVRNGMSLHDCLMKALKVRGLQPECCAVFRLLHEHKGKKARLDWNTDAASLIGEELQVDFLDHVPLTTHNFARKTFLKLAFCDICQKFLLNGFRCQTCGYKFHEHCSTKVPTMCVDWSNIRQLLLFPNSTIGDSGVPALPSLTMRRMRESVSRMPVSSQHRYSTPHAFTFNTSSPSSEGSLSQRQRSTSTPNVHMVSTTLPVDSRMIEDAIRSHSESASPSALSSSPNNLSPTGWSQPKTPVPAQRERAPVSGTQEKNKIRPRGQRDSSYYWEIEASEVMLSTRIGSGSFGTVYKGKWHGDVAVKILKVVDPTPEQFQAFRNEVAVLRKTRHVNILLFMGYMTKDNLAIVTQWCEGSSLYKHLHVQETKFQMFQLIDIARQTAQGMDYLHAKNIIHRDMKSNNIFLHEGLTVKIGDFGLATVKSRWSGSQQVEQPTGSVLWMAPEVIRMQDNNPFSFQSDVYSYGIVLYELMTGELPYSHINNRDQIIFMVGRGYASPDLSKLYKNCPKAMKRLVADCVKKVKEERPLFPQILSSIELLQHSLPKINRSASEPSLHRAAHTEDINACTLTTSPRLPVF
Description: as §5

KIT(V559D,T670I) = KIT(V559D,T670I) (Homo sapiens, UniProt P10721, T670I/V559D); experiment: biochemical; assay type: binding; conditions: 10000 nM; read-out: Percent Control
KIT(V559D,T670I), sequence (P10721 26-976 V559D/T670I): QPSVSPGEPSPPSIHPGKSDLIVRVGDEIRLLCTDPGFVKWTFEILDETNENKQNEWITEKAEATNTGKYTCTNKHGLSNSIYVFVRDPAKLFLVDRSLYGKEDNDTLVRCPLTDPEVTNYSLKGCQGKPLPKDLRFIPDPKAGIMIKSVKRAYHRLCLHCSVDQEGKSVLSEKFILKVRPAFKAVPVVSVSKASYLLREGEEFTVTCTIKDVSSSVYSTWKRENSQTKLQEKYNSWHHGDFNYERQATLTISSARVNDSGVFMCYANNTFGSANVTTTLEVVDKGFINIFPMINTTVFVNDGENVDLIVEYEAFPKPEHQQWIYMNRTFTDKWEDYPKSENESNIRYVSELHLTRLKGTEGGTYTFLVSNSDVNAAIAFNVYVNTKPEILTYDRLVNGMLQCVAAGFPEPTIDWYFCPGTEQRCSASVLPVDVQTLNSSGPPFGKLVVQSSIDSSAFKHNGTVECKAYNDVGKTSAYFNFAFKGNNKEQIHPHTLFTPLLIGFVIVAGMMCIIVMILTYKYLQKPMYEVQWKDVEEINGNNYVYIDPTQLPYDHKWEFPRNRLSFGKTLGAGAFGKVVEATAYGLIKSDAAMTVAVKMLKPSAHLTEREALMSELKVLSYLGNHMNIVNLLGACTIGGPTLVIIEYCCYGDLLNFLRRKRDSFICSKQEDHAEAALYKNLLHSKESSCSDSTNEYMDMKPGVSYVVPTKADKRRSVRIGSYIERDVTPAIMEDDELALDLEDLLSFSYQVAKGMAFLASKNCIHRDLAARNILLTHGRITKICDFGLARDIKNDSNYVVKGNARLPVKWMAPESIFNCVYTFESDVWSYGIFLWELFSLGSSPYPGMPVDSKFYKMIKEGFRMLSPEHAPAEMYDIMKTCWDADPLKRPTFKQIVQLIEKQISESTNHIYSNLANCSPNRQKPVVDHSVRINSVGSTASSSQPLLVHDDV
Description: as §5

FGFR3 = FGFR3 (Homo sapiens, UniProt P22607); experiment: biochemical; assay type: binding; conditions: 10000 nM; read-out: Percent Control
FGFR3, sequence (P22607 23-806): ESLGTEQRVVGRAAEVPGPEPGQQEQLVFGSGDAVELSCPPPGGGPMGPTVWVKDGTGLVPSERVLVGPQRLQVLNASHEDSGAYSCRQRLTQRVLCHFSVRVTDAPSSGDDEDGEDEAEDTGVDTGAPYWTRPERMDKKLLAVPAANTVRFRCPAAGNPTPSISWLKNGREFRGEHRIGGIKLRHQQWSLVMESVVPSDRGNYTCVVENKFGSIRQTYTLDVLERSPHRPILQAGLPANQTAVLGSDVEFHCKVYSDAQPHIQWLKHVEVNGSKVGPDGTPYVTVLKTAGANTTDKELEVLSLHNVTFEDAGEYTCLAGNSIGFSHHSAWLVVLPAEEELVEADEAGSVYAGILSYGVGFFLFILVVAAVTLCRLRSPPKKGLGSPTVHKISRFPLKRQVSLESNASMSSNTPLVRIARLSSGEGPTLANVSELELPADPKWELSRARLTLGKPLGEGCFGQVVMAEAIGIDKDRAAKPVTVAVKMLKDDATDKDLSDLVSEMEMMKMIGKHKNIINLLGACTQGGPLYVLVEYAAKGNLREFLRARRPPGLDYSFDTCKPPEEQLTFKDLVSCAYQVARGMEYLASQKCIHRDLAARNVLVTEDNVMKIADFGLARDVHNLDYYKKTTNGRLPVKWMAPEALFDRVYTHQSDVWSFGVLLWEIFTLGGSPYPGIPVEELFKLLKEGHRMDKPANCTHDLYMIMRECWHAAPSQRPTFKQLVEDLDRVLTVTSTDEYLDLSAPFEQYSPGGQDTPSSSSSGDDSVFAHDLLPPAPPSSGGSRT

BRAF(V600E) = BRAF(V600E) (Homo sapiens, UniProt P15056, V600E); experiment: biochemical; assay type: binding; conditions: 10000 nM; read-out: Percent Control
mice = assay type: in vivo; design: Paw Thickness / Paw thickness AVG 30 / Paw thickness AVG 60 / Paw thickness AVG 120: unit not given here; conditions: for Paw Thickness: duplicate readings; for Paw thickness %BL CARR: used for Figure 3E
[1] = 30 min, Carrageenan 30 µg, Group Average of 5 mice
[2] = 30 min, Carrageenan 30 µg, individual mouse
[3] = 60 min, Carrageenan 30 µg, Group Average of 5 mice
[4] = 60 min, Carrageenan 30 µg, individual mouse
[5] = 120 min, Carrageenan 30 µg, Group Average of 5 mice
[6] = 120 min, Carrageenan 30 µg, individual mouse
[7] = 180 min, Carrageenan 30 µg, Group Average of 5 mice
[8] = 180 min, Carrageenan 30 µg, individual mouse
[9] = 24 hours, Carrageenan 30 µg, Group Average of 5 mice
[10] = 24 hours, Carrageenan 30 µg, individual mouse

SMILES: O=C(O)C1CCC2(CC1)CC(Nc1ncnc3[nH]c4c(F)cccc4c13)C2 (centres unmarked) [Compound 74, OC(=O)C1CCC2(CC(C2)NC=3N=CN=C4NC=5C(F)=CC=CC5C34)CC1]
- remaining activity at 10 µM (ABL1-nonphosphorylated): 67%
- binding to EP1 receptor (EP1R): no binding
- remaining activity at 10 µM (CSNK1G2): 54%
- remaining activity at 10 µM (SNARK): 54%
- remaining activity at 10 µM (EPHA2): 83%
- activity in full dose-response (GPR174): no activity
- activity in full dose-response (GPR160): no activity
- activity in full dose-response (NMUR2): no activity
- remaining activity at 10 µM (JNK2): 41%
- remaining activity at 10 µM (PIK3C2B): 74%
- remaining activity at 10 µM (MEK1): 24%
- remaining activity at 10 µM (PLK1): 100%
- remaining activity at 10 µM (PDGFRA): 35%
- remaining activity at 10 µM (PCTK1): 94%
- remaining activity at 10 µM (MAP3K4): 92%
- remaining activity at 10 µM (RET): 5.9%
- remaining activity at 10 µM (PLK3): 97%
- remaining activity at 10 µM (PAK4): 65%
- remaining activity at 10 µM (MKNK2): 62%
- remaining activity at 10 µM (PIM2): 100%
- remaining activity at 10 µM (PAK1): 76%
- remaining activity at 10 µM (MARK3): 81%
- remaining activity at 10 µM (VEGFR2): 31%
- remaining activity at 10 µM (PAK2): 66%
- remaining activity at 10 µM (RIOK2): 54%
- remaining activity at 10 µM (RAF1): 98%
- remaining activity at 10 µM (KIT(V559D,T670I)): 56%
- remaining activity at 10 µM (FGFR3): 81%
- remaining activity at 10 µM (BRAF(V600E)): 84%

SMILES: O=C([O-])C1CCC2(CC1)CC(Nc1ncnc3[nH]c4c(F)cccc4c13)C2.[Na+] (centres unmarked) [Compound 77, [Na+].[O-]C(=O)C1CCC2(CC(C2)NC=3N=CN=C4NC=5C(F)=CC=CC5C34)CC1]
- effect on carrageenan-induced paw edema (mice; 30 mg/kg i.p., one day after carrageenan): significantly reduced
- Paw thickness %BL CARR, Group Average (mice; [1]): 92.2% and 96.7%
- Paw thickness %Baseline, Group Average (mice; [1]): 118.7% and 118.1%
- Paw thickness AVG 30, Group Average (mice; [1]): 2.0
- Paw thickness %Baseline (mice; [2]): 122.7% and 124.6% and 120.5% and 111.5% and 114.1% and 116.5% and 122.2% and 107.4% and 119.7% and 124.9%
- Paw thickness AVG 30 (mice; [2]): 2.0 and 2.2 and 2.1 and 1.9 and 1.8
- Paw Thickness (mice; [2]): 1.9 and 2.04 and 2.2 and 2.1 and 2.14 and 2.06 and 1.98 and 2.08 and 1.95 and 1.77 and 1.88 and 2 and 2.13 and 2.02
- Paw thickness %BL CARR (mice; [2]): 89.5% and 101.4% and 91.7% and 92.1% and 86.4% and 102.3% and 101.6% and 84.9% and 96.7% and 98.1%
- Paw thickness %BL CARR, Group Average (mice; [3]): 91.8% and 95.5%
- Paw thickness %Baseline, Group Average (mice; [3]): 118.2% and 116.8%
- Paw thickness AVG 60, Group Average (mice; [3]): 2.0
- Paw thickness %Baseline (mice; [4]): 124.6% and 118.8% and 118.2% and 112.4% and 117.1% and 109.8% and 115.0% and 114.7% and 118.3% and 126.1%
- Paw thickness AVG 60 (mice; [4]): 2.0 and 2.1 and 1.9
- Paw Thickness (mice; [4]): 2.1 and 1.9 and 2 and 2.02 and 1.97 and 1.98 and 2.05 and 2.09 and 2.2
- Paw thickness %BL CARR (mice; [4]): 90.9% and 96.7% and 89.9% and 92.8% and 88.6% and 96.4% and 95.6% and 90.7% and 99.1%
- Paw thickness %BL CARR, Group Average (mice; [5]): 89.1% and 94.8%
- Paw thickness %Baseline, Group Average (mice; [5]): 114.9% and 115.9%
- Paw thickness AVG 120, Group Average (mice; [5]): 2.0
- Paw thickness %Baseline (mice; [6]): 126.2% and 111.6% and 112.4% and 111.0% and 113.2% and 111.3% and 115.8% and 115.9% and 114.2% and 122.2%
- Paw thickness AVG 120 (mice; [6]): 2.0 and 1.9 and 2.1
- Paw Thickness (mice; [6]): 2 and 2.05 and 1.9 and 1.95 and 2.04 and 2.1 and 2.07 and 1.91 and 2.03 and 1.94 and 1.97
- Paw thickness %BL CARR (mice; [6]): 92.0% and 90.8% and 85.5% and 91.6% and 85.7% and 97.7% and 96.3% and 92.3% and 96.0%
- Paw thickness %BL CARR, Group Average (mice; [7]): 89.9% and 92.7%
- Paw thickness %Baseline, Group Average (mice; [7]): 115.8% and 113.3%
- Paw thickness AVG 180, Group Average (mice; [7]): 2.0
- Paw thickness %Baseline (mice; [8]): 125.5% and 114.5% and 111.0% and 112.4% and 115.6% and 112.7% and 106.9% and 111.8% and 115.9% and 118.9%
- Paw thickness AVG 180 (mice; [8]): 2.0 and 1.9
- Paw Thickness (mice; [8]): 2.03 and 2 and 1.95 and 1.9 and 2.09 and 2.02 and 1.91 and 1.99 and 1.96
- Paw thickness %BL CARR (mice; [8]): 91.6% and 93.2% and 84.4% and 92.8% and 87.5% and 99.0% and 88.9% and 88.4% and 93.7% and 93.4%
- Paw thickness %BL CARR, Group Average (mice; [9]): 85.7% and 94.0%
- Paw thickness %Baseline, Group Average (mice; [9]): 110.4% and 114.8%
- Paw thickness AVG 24h, Group Average (mice; [9]): 1.9 and 2.0
- Paw thickness %Baseline (mice; [10]): 118.4% and 111.0% and 109.2% and 105.9% and 107.4% and 115.6% and 114.7% and 114.5% and 120.1%
- Paw thickness AVG 24h (mice; [10]): 1.9 and 1.8 and 2.0
- Paw Thickness (mice; [10]): 1.9 (2×) and 1.83 and 2 and 1.92 and 1.87 and 1.84 and 1.8 and 1.85 and 1.93 and 1.95 (2×)
- Paw thickness %BL CARR (mice; [10]): 86.4% and 90.3% and 83.1% and 87.4% and 81.3% and 101.5% and 90.8% and 90.7% and 92.5% and 94.3%
